Tests used:
[1] = tested on: MCF-7 breast carcinoma cell line; assay: MTT cytotoxic activity against MCF-7 breast carcinoma cell line; conditions: Homo sapiens, MCF7, read-out: IC50 (μM) MCF-7
MCF-7 cells [2] = assay: Cell cycle analysis by flow cytometry (PI staining); assay type: cell-based
Method: It is well documented that most tyrosine kinase inhibitors exert strong antiproliferative and pro-apoptotic effect.[38] […] These findings are in agreement with the previously observed for EGFR-TK structural analogues.[39]
S4.2.3. Cell cycle analysis of compound 6h
Cell cycle analysis in MCF-7 cells was investigated using fluorescent […] (BioVision EZCellTM Cell Cycle Analysis Kit Catalog #K920) by flow cytometry assay. MCF-7 cells at a density of 2 × 10^5 per well were harvested and washed twice in PBS. After that, the cells were incubated at 37 °C and 5% CO2. The medium was incubated with the tested compound 6h at the IC50 (µM) for 48 h, washed twice in PBS, fixed with 70% ethanol, rinsed again with PBS. Afterward, medium was stained with DNA fluorochrome PI for 15 min at 37 °C. The samples were immediately analyzed using Facs Calibur flow cytometer (Becton and Dickinson, Heidelberg, […]
S4.2.4. Apoptosis assay for compound 6h
(1 picture or pasted object on this page, not shown here)

MCF-7 cells [3] = assay: Annexin V FITC/PI apoptosis staining assay by flow cytometry; assay type: cell-based; conditions: 2.71 μM, 48 h
Source text: In addition, an increase in the primary apoptotic cells was also observed. It is noteworthy that, the percentage of primary apoptosis was rise from 0.39 to 9.55% as compared to DMSO control (Fig. 4). According to these findings, it could be concluded that this set of compounds could halt MCF-7 cells in G1 phase and provoke apoptotic cellular death.
Apoptosis in MCF-7 cells was investigated using fluorescent Annexin V-FITC/ PI detection kit (BioVision Annexin V-FITC Apoptosis Detection Kit, Catalog #: K101) by flow cytometry assay. MCF-7 cells at a density of 2 × 10^5 per well were treated with compound 6h at the IC50 (µM) for 48 h, then the cells were harvested and stained with Annexin V-FITC/ PI dye for 15 min in the dark at 37 °C. The samples were immediately analyzed using FACS Calibur flow cytometer (Becton and Dickinson, […]

p53 = assay: Apoptotic marker determination by qRT-PCR: p53; assay type: cell-based; conditions: MCF-7 cells, 2.71 μM, 48 h, compared to DMSO controls
Source text: (§1) p53 is a transcription factor that both initiates and suppresses a number of target genes involved in cancer progression and apoptosis.[40] The p53 protein level increase during cellular stress and cytotoxic drugs by increased transcription or increased stability due to post-translational modifications such as phosphorylation.[41] The ability of p53 to modulate caspase activation and apoptosis induction is critical to its role as tumor suppressor.[42] Coordinately, p53 activation promotes the loss of mitochondrial potential ultimately leading to caspase activation and apoptosis.[43] […] An increase in the level of p53 was detected in the tested cell line compared with controls at 48 h. The increased expression of p53 level was coupled with increase in the level of caspase 9 in compound 6h-treated MCF-7 cell line at 48 h. The levels of p53 and caspase 9 were increased by 7.4- and 8.7-fold, respectively compared with controls (Fig. 5).
(§2) MCF-7 cells were treated with 2.71 μM of tested hybrid for 48 h before qRT-PCR measurement and compared to untreated controls. (A) p53 level; (B) caspase 9 level.

EGFR kinase = biological target: T1, EGFR kinase (Homo sapiens, UniProt P00533); assay: EGFR-TK inhibition assay (BPS Bioscience EGFR Kinase Assay Kit); assay type: biochemical
T1 construct: purchased BPS Bioscience 40321
T1 sequence (P00533 25-1210): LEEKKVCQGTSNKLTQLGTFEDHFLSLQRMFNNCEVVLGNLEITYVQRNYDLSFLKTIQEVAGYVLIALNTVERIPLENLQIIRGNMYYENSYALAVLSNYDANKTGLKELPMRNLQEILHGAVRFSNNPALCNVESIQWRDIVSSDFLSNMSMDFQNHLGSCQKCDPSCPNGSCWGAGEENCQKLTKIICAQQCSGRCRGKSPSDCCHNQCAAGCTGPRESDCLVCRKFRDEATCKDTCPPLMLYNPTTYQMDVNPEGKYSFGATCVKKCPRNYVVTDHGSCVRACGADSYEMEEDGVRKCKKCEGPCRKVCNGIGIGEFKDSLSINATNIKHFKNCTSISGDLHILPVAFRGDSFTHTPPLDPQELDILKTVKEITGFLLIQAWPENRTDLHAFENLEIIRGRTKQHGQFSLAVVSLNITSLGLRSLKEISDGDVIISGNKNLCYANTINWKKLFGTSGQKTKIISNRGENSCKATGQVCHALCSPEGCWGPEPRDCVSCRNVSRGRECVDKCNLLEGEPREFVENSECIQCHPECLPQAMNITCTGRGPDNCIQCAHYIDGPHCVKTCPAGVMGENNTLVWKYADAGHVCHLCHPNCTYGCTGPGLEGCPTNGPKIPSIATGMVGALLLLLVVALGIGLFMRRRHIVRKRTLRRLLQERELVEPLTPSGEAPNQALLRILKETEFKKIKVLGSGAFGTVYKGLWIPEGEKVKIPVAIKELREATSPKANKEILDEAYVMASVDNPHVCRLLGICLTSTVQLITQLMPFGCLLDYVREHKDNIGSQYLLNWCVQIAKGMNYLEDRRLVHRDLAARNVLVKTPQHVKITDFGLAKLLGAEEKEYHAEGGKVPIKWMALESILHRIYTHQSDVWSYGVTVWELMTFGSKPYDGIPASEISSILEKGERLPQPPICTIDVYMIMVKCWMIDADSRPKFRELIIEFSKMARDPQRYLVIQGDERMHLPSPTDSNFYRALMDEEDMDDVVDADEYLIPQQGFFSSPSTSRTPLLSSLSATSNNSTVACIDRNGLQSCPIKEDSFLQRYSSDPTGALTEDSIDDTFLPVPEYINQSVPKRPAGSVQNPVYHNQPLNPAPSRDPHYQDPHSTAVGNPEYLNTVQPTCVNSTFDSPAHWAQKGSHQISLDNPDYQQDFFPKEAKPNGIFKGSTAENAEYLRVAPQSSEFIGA
Source text: S4.2.1. Cytotoxic activity evaluation
adenocarcinoma (MCF-7) cell line.
Dimethyl sulphoxide (DMSO) in
S4.2.2. EGFR kinase Assay

caspase 9 = assay: Apoptotic marker determination by qRT-PCR: caspase 9; assay type: cell-based; conditions: MCF-7 cells, 2.71 μM, 48 h, compared to DMSO controls
Source text: as §1, §2

Row | melting point [°C] | SMILES | IC50 [1] [µM] | other results
1 | 261 to 263 | COc1ccc(C(=O)N/C(=C\c2ccc(Br)cc2)C(=O)NNC(=O)c2cc(-c3ccc(Br)cc3)nc3ccccc23)cc1 [Compound 6g, (Z)-N-(1-(4-Bromophenyl)-3-(2-(2-(4-bromophenyl)quinoline-4-carbonyl)hydrazinyl)-3-oxoprop-1-en-2-yl)-4-methoxybenzamide] | 39.1 ± 1.26 | –
2 | 217 to 219 | COc1ccc(C(=O)N/C(=C\c2cc(Br)c(OC(C)=O)c(Br)c2)C(=O)NNC(=O)c2cc(-c3ccc(Br)cc3)nc3ccccc23)cc1 [Compound 6i, (Z)-2,6-Dibromo-4-(3-(2-(2-(4-bromophenyl)quinoline-4-carbonyl)hydrazinyl)-2-(4-methoxybenzamido)-3-oxoprop-1-enyl)phenyl acetate] | 8.77 ± 0.28 | –
3 | 276 to 278 | COc1ccc(C(=O)N/C(=C\c2ccc(Cl)cc2)C(=O)NNC(=O)c2cc(-c3ccc(Br)cc3)nc3ccccc23)cc1 [Compound 6f, (Z)-N-(3-(2-(2-(4-Bromophenyl)quinoline-4-carbonyl)hydrazinyl)-1-(4-chlorophenyl)-3-oxoprop-1-en-2-yl)-4-methoxybenzamide] | 26 ± 0.84 | –

Further lines, the compound ahead of its results:

Row | SMILES | melting point [°C] | IC50 [1] [µM] | other results
4 | COc1ccc(C(=O)N/C(=C\c2ccc(OC)c(OC)c2OC)C(=O)NNC(=O)c2cc(-c3ccc(Br)cc3)nc3ccccc23)cc1 [Compound 6c, (Z)-N-(3-(2-(2-(4-Bromophenyl)quinoline-4-carbonyl)hydrazinyl)-3-oxo-1-(2,3,4-trimethoxyphenyl)prop-1-en-2-yl)-4-methoxybenzamide] | 192 to 194 | 51.8 ± 1.54 | –
5 | COc1ccc(C(=O)N/C(=C\c2ccc([N+](=O)[O-])cc2)C(=O)NNC(=O)c2cc(-c3ccc(Br)cc3)nc3ccccc23)cc1 [Compound 6h, (Z)-N-(3-(2-(2-(4-Bromophenyl)quinoline-4-carbonyl)hydrazinyl)-1-(4-nitrophenyl)-3-oxoprop-1-en-2-yl)-4-methoxybenzamide] | – | 2.71 ± 0.09 | G1 phase arrest, fold more than DMSO controls (MCF-7 cells [2]; 2.71 μM): 1.3 fold; percentage of cells in G2/M phase (MCF-7 cells [2]; 2.71 μM (IC50) of compound, 48 h, DMSO control 15.56%): 9.37%; percentage of cells in S phase (MCF-7 cells [2]; 2.71 μM (IC50) of compound, 48 h, DMSO control 37.51%): 28.48%; proportion of cells in G1 phase (MCF-7 cells [2]; 2.71 μM (IC50) of compound, 48 h, DMSO control 46.93%): 62.15%; percentage of secondary cellular apoptosis (MCF-7 cells [3]; DMSO control 0.11%): 17.78%; percentage of primary apoptosis (MCF-7 cells [3]; DMSO control 0.39%): 9.55%; increase of p53 level vs controls (p53): 7.4 fold; IC50 (EGFR kinase): 0.22 µM; increase of caspase 9 level vs controls (caspase 9): 8.7 fold
6 | COc1ccc(C(=O)N/C(=C\c2ccco2)C(=O)NNC(=O)c2cc(-c3ccc(Br)cc3)nc3ccccc23)cc1 [Compound 5, (Z)-N-(3-(2-(2-(4-Bromophenyl)quinoline-4-carbonyl)hydrazinyl)-1-(furan-2-yl)-3-oxoprop-1-en-2-yl)-4-methoxybenzamide] | 257 to 259 | 12.5 ± 0.4 | –
7 | COc1ccc(C(=O)N/C(=C\c2ccc(C)cc2)C(=O)NNC(=O)c2cc(-c3ccc(Br)cc3)nc3ccccc23)cc1 [Compound 6a, (Z)-N-(3-(2-(2-(4-Bromophenyl)quinoline-4-carbonyl)hydrazinyl)-3-oxo-1-p-tolylprop-1-en-2-yl)-4-methoxybenzamide] | 246 to 248 | 3.39 ± 0.11 | IC50 (EGFR kinase): 0.31 µM
8 | COc1cccc2c1C(=O)c1c(O)c3c(c(O)c1C2=O)C[C@@](O)(C(=O)CO)C[C@@H]3O[C@H]1C[C@H](N)[C@H](O)[C@H](C)O1 [Dox, Doxorubicin, reference compound] | – | 6.18 ± 0.2 | –
9 | COc1ccc(C(=O)N/C(=C\c2ccc(F)cc2)C(=O)NNC(=O)c2cc(-c3ccc(Br)cc3)nc3ccccc23)cc1 [Compound 6e, (Z)-N-(3-(2-(2-(4-Bromophenyl)quinoline-4-carbonyl)hydrazinyl)-1-(4-fluorophenyl)-3-oxoprop-1-en-2-yl)-4-methoxybenzamide] | 258 to 260 | 21.2 ± 0.68 | –
10 | COc1ccc(C(=O)N/C(=C\c2cc(OC)c(OC)c(OC)c2)C(=O)NNC(=O)c2cc(-c3ccc(Br)cc3)nc3ccccc23)cc1 [Compound 6d, (Z)-N-(3-(2-(2-(4-Bromophenyl)quinoline-4-carbonyl)hydrazinyl)-3-oxo-1-(3,4,5-trimethoxyphenyl)prop-1-en-2-yl)-4-methoxybenzamide] | 208 to 210 | 17.1 ± 0.55 | –
11 | COc1ccc(C(=O)N/C(=C\c2ccc(OC)c(OC)c2)C(=O)NNC(=O)c2cc(-c3ccc(Br)cc3)nc3ccccc23)cc1 [Compound 6b, (Z)-N-(3-(2-(2-(4-Bromophenyl)quinoline-4-carbonyl)hydrazinyl)-1-(3,4-dimethoxyphenyl)-3-oxoprop-1-en-2-yl)-4-methoxybenzamide] | 235 to 237 | 5.94 ± 0.17 | –

From publication PMC11273260
